Source: patent US20220372013A2, “PIPERIDINE-2,6-DIONE DERIVATIVES AND CROHN'S DISEASE TREATING” (Tianjin Hemay Pharmaceutical Sci-Tech Co., Ltd, priority 2016, published 2022)

Test system: mice
Test: Biological Example 5: acute toxicity experiment of single oral administration in mice
Format: in vivo
Details: single oral 1000 mg/Kg, Mean ± SD
Protocol: The mice were fasted one day before the experiment. On the day of the experiment, 6 mice (ICR mice, body weight of 19-21 g, three females and three males) were selected in each experiment group. First of all, one female and one male were selected to orally give 1000 mg/Kg, and observed for 5-10 minutes. If there were no obvious side effects, the remaining 4 animals were orally given the same dose, and observed for 10-15 minutes. If no animal died, the animals were placed in a box to balancedly feed for 7 days. The state was observed and the body weight was recorded daily.
Observation Indexes within 0-15 Minutes after Administration
Activity: restlessness, hyperactivity
Nervous system response: tremor, spasm, convulsion, ataxia, posture abnormality, etc.
Autonomic nerve: exophthalmos, salivation, tears, urination (hematuria), diarrhea, piloerection, breathing, etc.
State of Animal: lethargy, hyperactivity, excitement, hair loss, diarrhea, abnormal behavior, death, etc.

Row | SMILES | Daily Body Weight (Female mice, Day 1) | Daily Body Weight (Female mice, Day 2) | Daily Body Weight (Female mice, Day 3) | Daily Body Weight (Female mice, Day 4) | Daily Body Weight (Female mice, Day 5) | Daily Body Weight (Female mice, Day 6) | Daily Body Weight (Female mice, Day 7) | Daily Body Weight (Male mice, Day 1) | Daily Body Weight (Male mice, Day 2) | Daily Body Weight (Male mice, Day 3) | Daily Body Weight (Male mice, Day 4) | Daily Body Weight (Male mice, Day 5) | Daily Body Weight (Male mice, Day 6) | Daily Body Weight (Male mice, Day 7)
1 | CCOCCN1C(=O)CCC(N2C(=O)c3cccc(N)c3C2=O)C1=O (stereo not shown) [Example 19, 4-amino-2-(1-(2-ethoxyethyl)-2,6-dioxopiperidin-3-yl)isoindolin-1,3-dione] | 18.0 ± 0.6 g | 20.7 ± 1.1 g | 21.3 ± 0.6 g | 22.8 ± 0.3 g | 23.2 ± 0.7 g | 23.3 ± 1.2 g | 23.0 ± 1.7 g | 18.9 ± 1.2 g | 20.7 ± 1.1 g | 21.3 ± 0.6 g | 25.0 ± 2.0 g | 24.8 ± 1.9 g | 26.5 ± 1.9 g | 27.7 ± 2.2 g
2 | COCCN1C(=O)CCC(N2C(=O)c3ccc(F)c(N)c3C2=O)C1=O (stereo not shown) [Example 9, 4-amino-5-fluoro-2-(1-(2-methoxyethyl)-2,6-dioxopiperidin-3-yl)isoindolin-1,3-dione] | 17.5 ± 0.6 g | 22.1 ± 0.9 g | 22.1 ± 0.7 g | 22.8 ± 0.8 g | 22.8 ± 1.0 g | 22.7 ± 1.6 g | 23.6 ± 1.7 g | 18.3 ± 0.7 g | 23.6 ± 0.7 g | 24.1 ± 1.0 g | 25.9 ± 1.1 g | 27.2 ± 0.5 g | 26.9 ± 1.4 g | 27.9 ± 1.5 g
3 | COCCCN1C(=O)CCC(N2C(=O)c3ccc(N)cc3C2=O)C1=O (stereo not shown) [Example 18, 5-amino-2-(1-(3-methoxypropyl)-2,6-dioxopiperidin-3-yl)isoindolin-1,3-dione] | 18.4 ± 0.7 g | 22.5 ± 0.8 g | 23.8 ± 1.1 g | 24.8 ± 1.5 g | 24.8 ± 0.6 g | 25.4 ± 0.7 g | 25.2 ± 1.1 g | 18.2 ± 0.4 g | 23.0 ± 0.7 g | 24.1 ± 0.4 g | 25.6 ± 0.8 g | 28.1 ± 1.1 g | 29.0 ± 1.4 g | 29.0 ± 1.0 g
4 | CSCCN1C(=O)CCC(N2C(=O)c3cccc(N)c3C2=O)C1=O (stereo not shown) [Example 11, 4-amino-2-(1-(2-methylthioethyl)-2,6-dioxopiperidin-3-yl)isoindolin-1,3-dione] | 18.1 ± 0.2 g | 21.7 ± 0.2 g | 22.4 ± 0.1 g | 22.4 ± 0.1 g | 23.5 ± 0.4 g | 23.2 ± 0.8 g | 23.2 ± 0.9 g | 19.5 ± 0.6 g | 23.7 ± 0.8 g | 25.4 ± 0.4 g | 25.4 ± 0.4 g | 27.0 ± 0.5 g | 29.0 ± 0.7 g | 29.8 ± 1.0 g
5 | CS(=O)(=O)CCN1C(=O)CCC(N2C(=O)c3cccc(N)c3C2=O)C1=O (stereo not shown) [Example 13, 4-amino-2-(1-(2-methylsulfonylethyl)-2,6-dioxopiperidin-3-yl)isoindolin-1,3-dione] | 18.8 ± 1.1 g | 21.3 ± 0.3 g | 21.8 ± 0.4 g | 21.8 ± 0.4 g | 23.0 ± 0.5 g | 23.2 ± 0.9 g | 23.6 ± 0.9 g | 19.6 ± 0.7 g | 23.1 ± 0.6 g | 24.4 ± 0.9 g | 24.4 ± 0.9 g | 26.5 ± 0.5 g | 28.3 ± 1.3 g | 28.4 ± 0.8 g
